{"source": "patent US20250179047A1", "about": "“5-[7-(3,4-DIHYDRO-1H-ISOQUINOLINE-2-CARBONYL)-1,2,3,4 TETRAHYDROISOQUINOLIN-6-YL]-1H-PYRROLE-3-CARBOXAMIDE DERIVATIVES, PHARMACEUTICAL COMPOSITIONS CONTAINING THEM AND THEIR USES AS PRO-APOPTOTIC AGENTS” (LES LABORATOIRES SERVIER, priority 2022, published 2025)", "key": {"[1]": {"test_system": "KMS12PE Bcl2 G101V", "experiment": "In vitro cytotoxicity CellTiterGlo 72 h, KMS12PE Bcl2 G101V", "assay_type": "cell-based", "details": "Homo sapiens, KMS-12-PE, read-out: C50 nM, KMS12PE Bcl2 G101V", "method": "(§1) KMS-12-PE (ACC 606) were purchased from the Leibniz-Institute DSMZ (Braunschweig, Germany) and were grown at 37° C. in a humidified atmosphere with 5% CO2 in media recommended by the suppliers. Lentiviral particles containing Bcl-2 wild type (also named “Bcl2 WT”), Bcl-2 mutated on G101V (also named “Bcl2 G101V”), Bcl-2 mutated on D103Y (also named “Bcl2 D103Y”), Bcl-2 mutated on D103V (also named “Bcl2 D103V”), Bcl-2 mutated on D103E (also named “Bcl2 D103E”), Bcl-2 mutated on F104I (also named “Bcl2 F104I”), Bcl-2 mutated on F104L (also named “Bcl2 F104L”), Bcl-2 mutated on D111A (also named “Bcl2 D111A”), Bcl-2 mutated on A113G (also named “Bcl2 A113G”), Bcl-2 mutated on R129L (also named “Bcl2 R129L”), Bcl-2 mutated on V156D (also named “Bcl2 V156D”) were cloned into pcLV-CMV-DEST-IRES-TagRFP. Lentiviral particles (1×10^6) were mixed with Polybrene at 8 μg/ml and transduced by spinoculation for 1 h at 32° C. and incubated overnight. After 8 days, TagRFP positive-cells were sorted by FACS. BCL2 expression was monitored by immunoblotting using anti-Flag and anti-BCL2 antibodies. Cells were seeded into 96-wells plates and treated with 1:3.16 serial dilution of compounds (9 different concentrations). Cell viability was assessed using CellTiterGlo reagent following treatment for 72 h. Results were normalized to the viability of cells without compounds (control wells). The C50 values were calculated using nonlinear regression algorithms in XCell software."}, "[2]": {"test_system": "KMS12PE Bcl2 WT", "experiment": "In vitro cytotoxicity CellTiterGlo 72 h, KMS12PE Bcl2 WT", "assay_type": "cell-based", "details": "Homo sapiens, KMS-12-PE, read-out: C50 nM, KMS12PE Bcl2 WT", "method": "as §1"}, "[3]": {"biological_target": "BCL2 D103Y (Homo sapiens, UniProt P10415, D103Y)", "experiment": "TR-FRET competitive binding assay, BCL2 D103Y", "details": "Ki determined from IC50, read-out: TR_FRET EKI_Bcl2 D103Y", "method_in_brief": "(§2)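 Ki derived from IC50 (11-point dilution, 520/495 nm emission ratio) for displacing a fluorescein-labelled PUMA peptide (2 or 20 nM). Target was 0.5 nM E. coli-expressed Halo-tagged BCL2 (1-207) or BCLXL (2-196), terbium-labelled on Halo. Incubation 2 h at 23°C in pH 7.5 Hepes with 150 mM NaCl and 5% DMSO.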"}, "[4]": {"test_system": "KMS12PE Bcl2 D103E", "experiment": "In vitro cytotoxicity CellTiterGlo 72 h, KMS12PE Bcl2 D103E", "assay_type": "cell-based", "details": "Homo sapiens, KMS-12-PE, read-out: C50 nM, KMS12PE Bcl2 D103E", "method": "as §1"}, "[5]": {"biological_target": "BCLXL WT (Homo sapiens (Human), UniProt Q07817)", "sequence (Q07817 other isoform, or with tags, fused parts or gaps)": "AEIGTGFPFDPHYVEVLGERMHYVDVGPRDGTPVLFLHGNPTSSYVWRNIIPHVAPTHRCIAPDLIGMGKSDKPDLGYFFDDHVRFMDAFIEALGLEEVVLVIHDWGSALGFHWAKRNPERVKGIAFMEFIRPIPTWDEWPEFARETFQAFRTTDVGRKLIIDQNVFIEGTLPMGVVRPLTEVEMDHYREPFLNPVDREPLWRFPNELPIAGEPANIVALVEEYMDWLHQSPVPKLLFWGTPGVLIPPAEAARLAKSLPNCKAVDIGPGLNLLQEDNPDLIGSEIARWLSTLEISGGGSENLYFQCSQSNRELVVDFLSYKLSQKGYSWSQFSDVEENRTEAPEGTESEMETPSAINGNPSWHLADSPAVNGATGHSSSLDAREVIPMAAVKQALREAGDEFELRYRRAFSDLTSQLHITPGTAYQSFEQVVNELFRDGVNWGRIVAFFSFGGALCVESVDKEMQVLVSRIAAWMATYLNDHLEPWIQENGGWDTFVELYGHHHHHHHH", "experiment": "TR-FRET competitive binding assay, BCLXL WT", "details": "for pKi: BCLXL WT, Ki determined from IC50, read-out: TR_FRET EKI BclxL; for TR_FRET EKI BCLxL/WT selectivty ratio: ratio Ki BCLxL / Ki BCL2 WT", "method_in_brief": "as §2"}, "[6]": {"test_system": "KMS12PE Bcl2 R129L", "experiment": "In vitro cytotoxicity CellTiterGlo 72 h, KMS12PE Bcl2 R129L", "assay_type": "cell-based", "details": "Homo sapiens, KMS-12-PE, read-out: C50 nM, KMS12PE Bcl2 R129L", "method": "as §1"}, "[7]": {"test_system": "KMS12PE Bcl2 D103Y", "experiment": "In vitro cytotoxicity CellTiterGlo 72 h, KMS12PE Bcl2 D103Y", "assay_type": "cell-based", "details": "Homo sapiens, KMS-12-PE, read-out: C50 nM, KMS12PE Bcl2 D103Y", "method": "as §1"}, "[8]": {"test_system": "BCL2 G101V", "experiment": "TR-FRET competitive binding assay, BCL2 G101V", "set-up": "species or system human", "details": "ratio Ki BCL2 G101V / Ki BCL2 WT", "method_in_brief": "as §2"}, "[9]": {"biological_target": "BCL2 G101V (Homo sapiens, UniProt P10415, G101V)", "experiment": "TR-FRET competitive binding assay, BCL2 G101V", "details": "BCL2 G101V; Ki determined from IC50; read-out: TR_FRET EKI_Bcl2 G101V", "method_in_brief": "as §2"}, "[10]": {"test_system": "KMS12PE Bcl2 D103V", "experiment": "In vitro cytotoxicity CellTiterGlo 72 h, KMS12PE Bcl2 D103V", "assay_type": "cell-based", "details": "Homo sapiens, KMS-12-PE, read-out: C50 nM, KMS12PE Bcl2 D103V", "method": "as §1"}}, "note": "pIC50, pKi: −log10 of the molar value."}
{"molecule": "Cc1c(N(C(=O)c2cc(-c3cc4c(cc3C(=O)N3Cc5ccccc5C[C@H]3C)CN(C(=O)Cc3ccc(OCCN5CCOCC5)cc3)CC4)n(C)c2C)c2ccc(O)cc2)cc(C#N)n1C", "note": "[Example 21, N-(5-cyano-1,2-dimethyl-1H-pyrrol-3-yl)-N-(4-hydroxyphenyl)-1,2-dimethyl-5-{7-[(3R)-3-methyl-1,2,3,4-tetrahydroisoquinoline-2-carbonyl]-2-(2-{4-[2-(morpholin-4-yl)ethoxy]phenyl}acetyl)-1,2,3,4-tetrahydroisoquinolin-6-yl}-1H-pyrrole-3-carboxamide]", "values": [{"measurement": "pIC50", "setting": "[1]", "result": 8.03}, {"measurement": "pIC50", "setting": "[2]", "result": 8.59}, {"measurement": "pKi", "setting": "[3]", "result": 9.46}, {"measurement": "pIC50", "setting": "[4]", "result": 8.63}, {"measurement": "pKi", "setting": "[5]", "result": 8.96}, {"measurement": "TR_FRET EKI BCLxL/WT selectivty ratio", "setting": "[5]", "result": 10.0}, {"measurement": "pIC50", "setting": "[6]", "result": 8.82}, {"measurement": "pIC50", "setting": "[7]", "result": 8.68}, {"measurement": "TR_FRET EKI G101V/WT selectivty ratio", "setting": "[8]", "result": 3.1}, {"measurement": "pKi", "setting": "[9]", "result": 9.52}, {"measurement": "pIC50", "setting": "[10]", "result": 8.48}]}
{"molecule": "Cc1c(N(C(=O)c2cc(-c3cc4c(cc3C(=O)N3Cc5ccccc5C[C@H]3C)CN(C(=O)Cc3ccc(OCCC5CCOCC5)cc3)CC4)n(C)c2C)c2ccc(O)cc2)cc(C#N)n1C", "note": "[Example 27, N-(5-cyano-1,2-dimethyl-1H-pyrrol-3-yl)-N-(4-hydroxyphenyl)-1,2-dimethyl-5-{7-[(3R)-3-methyl-1,2,3,4-tetrahydroisoquinoline-2-carbonyl]-2-(2-{4-[2-(oxan-4-yl)ethoxy]phenyl}acetyl)-1,2,3,4-tetrahydroisoquinolin-6-yl}-1H-pyrrole-3-carboxamide]", "values": [{"measurement": "pIC50", "setting": "[1]", "result": 8.14}, {"measurement": "pIC50", "setting": "[2]", "result": 8.82}, {"measurement": "pKi", "setting": "[3]", "result": 9.14}, {"measurement": "pIC50", "setting": "[4]", "result": 8.84}, {"measurement": "pKi", "setting": "[5]", "result": 8.00}, {"measurement": "TR_FRET EKI BCLxL/WT selectivty ratio", "setting": "[5]", "result": 12.6}, {"measurement": "pIC50", "setting": "[6]", "result": 9.00}, {"measurement": "pIC50", "setting": "[7]", "result": 8.96}, {"measurement": "TR_FRET EKI G101V/WT selectivty ratio", "setting": "[8]", "result": 1.5}, {"measurement": "pKi", "setting": "[9]", "result": 8.92}, {"measurement": "pIC50", "setting": "[10]", "result": 8.81}]}
{"molecule": "Cc1c(N(C(=O)c2cc(-c3cc4c(cc3C(=O)N3Cc5ccccc5C[C@H]3CN3CCCCC3)CN(C(=O)Cc3ccc(OCCN5CCOCC5)cc3F)CC4)n(C)c2C)c2ccc(O)cc2)cc(C#N)n1C", "note": "[Example 43, N-(5-cyano-1,2-dimethylpyrrol-3-yl)-5-[2-(2-{2-fluoro-4-[2-(morpholin-4-yl)ethoxy]phenyl}acetyl)-7-{[(3S)-3-(piperidin-1-ylmethyl)-3,4-dihydro-1H-isoquinolin-2-yl]carbonyl}-3,4-dihydro-1H-isoquinolin-6-yl]-N-(4-hydroxyphenyl)-1,2-dimethylpyrrole-3-carboxamide]", "values": [{"measurement": "pIC50", "setting": "[1]", "result": 8.00}, {"measurement": "pIC50", "setting": "[2]", "result": 8.74}, {"measurement": "pKi", "setting": "[3]", "result": 9.85}, {"measurement": "pIC50", "setting": "[4]", "result": 8.84}, {"measurement": "pKi", "setting": "[5]", "result": 8.66}, {"measurement": "TR_FRET EKI BCLxL/WT selectivty ratio", "setting": "[5]", "result": 55.0}, {"measurement": "pIC50", "setting": "[6]", "result": 9.00}, {"measurement": "pIC50", "setting": "[7]", "result": 8.89}, {"measurement": "TR_FRET EKI G101V/WT selectivty ratio", "setting": "[8]", "result": 5.0}, {"measurement": "pKi", "setting": "[9]", "result": 9.70}, {"measurement": "pIC50", "setting": "[10]", "result": 8.70}]}
{"molecule": "Cc1c(N(C(=O)c2cc(-c3cc4c(cc3C(=O)N3Cc5ccccc5C[C@H]3C)CN(C(=O)Cc3ccc(N5CCN6CCOC[C@@H]6C5)cc3F)CC4)n(C)c2C)c2ccc(O)cc2)cc(C#N)n1C", "note": "[Example 45, 5-[2-(2-{4-[(9aS)-octahydropyrazino[2,1-c][1,4]oxazin-8-yl]-2-fluorophenyl}acetyl)-7-[(3R)-3-methyl-1,2,3,4-tetrahydroisoquinoline-2-carbonyl]-1,2,3,4-tetrahydroisoquinolin-6-yl]-N-(5-cyano-1,2-dimethyl-1H-pyrrol-3-yl)-N-(4-hydroxyphenyl)-1,2-dimethyl-1H-pyrrole-3-carboxamide]", "values": [{"measurement": "pIC50", "setting": "[1]", "result": 7.74}, {"measurement": "pIC50", "setting": "[2]", "result": 8.48}, {"measurement": "pKi", "setting": "[3]", "result": 9.82}, {"measurement": "pIC50", "setting": "[4]", "result": 8.57}, {"measurement": "pKi", "setting": "[5]", "result": 8.60}, {"measurement": "TR_FRET EKI BCLxL/WT selectivty ratio", "setting": "[5]", "result": 31.6}, {"measurement": "pIC50", "setting": "[6]", "result": 8.72}, {"measurement": "pIC50", "setting": "[7]", "result": 9.70}, {"measurement": "TR_FRET EKI G101V/WT selectivty ratio", "setting": "[8]", "result": 4.8}, {"measurement": "pKi", "setting": "[9]", "result": 9.40}, {"measurement": "pIC50", "setting": "[10]", "result": 8.57}]}
